The source of these data is patent US20260109694A1, “HETEROCYCLIC COMPOUNDS AND USES THEREOF” (Kumquat Biosciences Inc., priority 2023, published 2026).

One assay addresses T1, PTP1B (Homo sapiens, UniProt P18031).
T1 sequence (P18031 1-435): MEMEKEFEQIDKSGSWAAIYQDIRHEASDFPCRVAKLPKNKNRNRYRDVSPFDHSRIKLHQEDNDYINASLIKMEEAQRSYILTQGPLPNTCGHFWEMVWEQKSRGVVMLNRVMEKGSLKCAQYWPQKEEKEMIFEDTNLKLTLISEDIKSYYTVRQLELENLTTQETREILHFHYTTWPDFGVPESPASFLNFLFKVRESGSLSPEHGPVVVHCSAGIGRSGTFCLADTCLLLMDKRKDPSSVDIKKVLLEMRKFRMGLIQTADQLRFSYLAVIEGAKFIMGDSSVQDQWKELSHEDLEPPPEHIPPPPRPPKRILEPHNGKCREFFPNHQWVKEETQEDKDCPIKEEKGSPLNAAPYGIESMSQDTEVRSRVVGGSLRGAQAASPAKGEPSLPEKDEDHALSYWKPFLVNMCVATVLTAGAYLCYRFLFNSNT
The assay can be described thus: Phosphatase activity assay (DiFMUP substrate). It counts as biochemical. The note with it: value bin printed in column head. The procedure, abridged: (§1)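 Each enzyme (PTPN2 at 0.025 ng/ul) was premixed ~2 min with a 10-point inhibitor series in 50 mM HEPES pH 7.5, 150 mM NaCl, 0.5 mM EDTA, 1 mM DTT, 0.001% Tween-20 at room temperature. DiFMUP was added at each enzyme's Km (~45 μM for PTPN2). DiFMU fluorescence was followed 15–30 min, and IC50 came from 4-parameter fits of initial rates.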

Another assay deals with T2, PTPN2 (Homo sapiens, UniProt P17706).
T2 sequence (P17706 1-415): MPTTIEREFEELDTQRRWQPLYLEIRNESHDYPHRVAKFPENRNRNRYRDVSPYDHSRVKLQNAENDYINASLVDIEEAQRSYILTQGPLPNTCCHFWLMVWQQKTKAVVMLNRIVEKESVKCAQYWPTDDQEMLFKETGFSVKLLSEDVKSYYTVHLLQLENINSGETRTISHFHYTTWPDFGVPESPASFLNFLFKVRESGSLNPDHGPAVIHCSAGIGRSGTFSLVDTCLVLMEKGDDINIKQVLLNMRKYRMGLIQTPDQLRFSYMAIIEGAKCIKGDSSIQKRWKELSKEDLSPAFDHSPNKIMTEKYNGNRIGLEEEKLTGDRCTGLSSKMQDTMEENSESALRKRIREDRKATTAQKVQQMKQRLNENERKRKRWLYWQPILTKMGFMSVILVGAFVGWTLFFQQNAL
The assay can be described thus: Phosphatase activity assay (DiFMUP substrate). It counts as biochemical. The note with it: value bin printed in column head. The procedure, abridged:
as §1

Take `CC(C)CC[C@H]1C=C(c2ccc(O)c(N3CC(=O)NS3(=O)=O)c2F)CN1C(=O)OC(OC(=O)[C@H](N)C(C)C)C(C)C` (stereo partly drawn) [Compound 146, 1-((D-valyl)oxy)-2-methylpropyl (2S)-4-(3-(1,1-dioxido-4-oxo-1,2,5-thiadiazolidin-2-yl)-2-fluoro-4-hydroxyphenyl)-2-isopentyl-2,5-dihydro-1H-pyrrole-1-carboxylate]: the IC50 on PTP1B and at PTPN2 was ≤ 1000 nM throughout.
For the molecule `O=C1CN(c2c(O)ccc(C3=CCC(CO)C3)c2F)S(=O)(=O)N1` (stereo not shown) [Compound 135, 5-(2-fluoro-6-hydroxy-3-(4-(hydroxymethyl)cyclopent-1-en-1-yl)phenyl)-1,2,5-thiadiazolidin-3-one 1,1-dioxide], the IC50 at PTP1B and on PTPN2 was ≤ 1000 nM in each case.
In the case of `CC1(C2C=C(c3ccc(O)c(N4CC(=O)NS4(=O)=O)c3F)CN2)CC1` (stereo not shown) [Compound 108, 5-(2-fluoro-6-hydroxy-3-(5-(1-methylcyclopropyl)-2,5-dihydro-1H-pyrrol-3-yl)phenyl)-1,2,5-thiadiazolidin-3-one 1,1-dioxide], the half-maximal inhibitory concentration (IC50) at PTP1B is > 1000 nM; at PTPN2, ≤ 1000 nM.
Consider `CC(C)C(=O)O[C@@H](C)OC(=O)N1CC(c2ccc(O)c(N3CC(=O)NS3(=O)=O)c2F)=C[C@H]1CCC1CC1` [Compound 143, (R)-1-(isobutyryloxy)ethyl (R)-2-(2-cyclopropylethyl)-4-(3-(1,1-dioxido-4-oxo-1,2,5-thiadiazolidin-2-yl)-2-fluoro-4-hydroxyphenyl)-2,5-dihydro-1H-pyrrole-1-carboxylate], for which the half-inhibitory concentration (IC50) on PTP1B and on PTPN2 was ≤ 1000 nM each time.
As for `CC1(CCC2C=C(c3ccc(O)c(N4CC(=O)NS4(=O)=O)c3F)CN2)CC1` (stereo not shown) [Compound 104, 5-(2-fluoro-6-hydroxy-3-(5-(2-(1-methylcyclopropyl)ethyl)-2,5-dihydro-1H-pyrrol-3-yl)phenyl)-1,2,5-thiadiazolidin-3-one 1,1-dioxide], the half-inhibitory concentration (IC50) on PTP1B and at PTPN2 was ≤ 1000 nM each time.
For `CC(C)CC[C@H]1C=C(c2ccc(O)c(N3CC(=O)NS3(=O)=O)c2F)CN1C(=O)OC(C)OC(=O)C(C)C` (stereo partly drawn) [Compound 165, 1-(isobutyryloxy)ethyl (2S)-4-(3-(1,1-dioxido-4-oxo-1,2,5-thiadiazolidin-2-yl)-2-fluoro-4-hydroxyphenyl)-2-isopentyl-2,5-dihydro-1H-pyrrole-1-carboxylate], the 50% inhibitory concentration (IC50) at PTP1B and on PTPN2 was ≤ 1000 nM in each case.
Regarding `CC(=O)OC(C)OC(=O)N1CC(c2ccc(O)c(N3CC(=O)NS3(=O)=O)c2F)=C[C@H]1CCC1CCC1` (stereo partly drawn) [Compound 164, 1-acetoxyethyl (2R)-2-(2-cyclobutylethyl)-4-(3-(1,1-dioxido-4-oxo-1,2,5-thiadiazolidin-2-yl)-2-fluoro-4-hydroxyphenyl)-2,5-dihydro-1H-pyrrole-1-carboxylate], the IC50 on PTP1B and on PTPN2 was ≤ 1000 nM in each case.
Consider `CC(C)(C)CC[C@@H]1C=C(c2ccc(O)c(N3CC(=O)NS3(=O)=O)c2F)CN1` [Compound 110, (R)-5-(3-(5-(3,3-dimethylbutyl)-2,5-dihydro-1H-pyrrol-3-yl)-2-fluoro-6-hydroxyphenyl)-1,2,5-thiadiazolidin-3-one 1,1-dioxide], for which the half-maximal inhibitory concentration (IC50) at PTP1B and at PTPN2 was ≤ 1000 nM throughout.
For the molecule `CC(C)[C@H](N)C(=O)NCC(=O)N1CC(c2ccc(O)c(N3CC(=O)NS3(=O)=O)c2F)=C[C@H]1CCC1CCC1` [Compound 144, (S)-2-amino-N-(2-((R)-2-(2-cyclobutylethyl)-4-(3-(1,1-dioxido-4-oxo-1,2,5-thiadiazolidin-2-yl)-2-fluoro-4-hydroxyphenyl)-2,5-dihydro-1H-pyrrol-1-yl)-2-oxoethyl)-3-methylbutanamide], the IC50 on PTP1B and on PTPN2 was ≤ 1000 nM throughout.
`CC1=C(c2ccc(O)c(N3CC(=O)NS3(=O)=O)c2F)CNC1C` (stereo not shown) [Compound 118, 5-(3-(4,5-dimethyl-2,5-dihydro-1H-pyrrol-3-yl)-2-fluoro-6-hydroxyphenyl)-1,2,5-thiadiazolidin-3-one 1,1-dioxide]: the 50% inhibitory concentration (IC50) at PTP1B and at PTPN2 was > 1000 nM in each case.
For `O=C1CN(c2c(O)ccc(C3=CC(CC4CCC4)NC3)c2F)S(=O)(=O)N1` (stereo not shown) [Compound 126, 5-(3-(5-(cyclobutylmethyl)-2,5-dihydro-1H-pyrrol-3-yl)-2-fluoro-6-hydroxyphenyl)-1,2,5-thiadiazolidin-3-one 1,1-dioxide], the half-inhibitory concentration (IC50) on PTP1B and at PTPN2 was ≤ 1000 nM each time.
Turning to `CC(C)[C@@H](N)C(=O)NCC(=O)N1CC(c2ccc(O)c(N3CC(=O)NS3(=O)=O)c2F)=C[C@H]1CCC1CCC1` [Compound 149, (R)-2-amino-N-(2-((R)-2-(2-cyclobutylethyl)-4-(3-(1,1-dioxido-4-oxo-1,2,5-thiadiazolidin-2-yl)-2-fluoro-4-hydroxyphenyl)-2,5-dihydro-1H-pyrrol-1-yl)-2-oxoethyl)-3-methylbutanamide], the 50% inhibitory concentration (IC50) at PTP1B and on PTPN2 was ≤ 1000 nM in each case.
Take `CC(C)CC[C@H]1C=C(c2ccc(O)c(N3CC(=O)NS3(=O)=O)c2F)CN1C(=O)OC(C)OC(=O)C1CCCC1` (stereo partly drawn) [Compound 153, 1-((cyclopentanecarbonyl)oxy)ethyl (2S)-4-(3-(1,1-dioxido-4-oxo-1,2,5-thiadiazolidin-2-yl)-2-fluoro-4-hydroxyphenyl)-2-isopentyl-2,5-dihydro-1H-pyrrole-1-carboxylate]: the IC50 on PTP1B and on PTPN2 was > 1000 nM each time.
With `O=C1CN(c2c(O)ccc(CC3CCNC3)c2F)S(=O)(=O)N1` (stereo not shown) [Compound 141, 5-(2-fluoro-6-hydroxy-3-(pyrrolidin-3-ylmethyl)phenyl)-1,2,5-thiadiazolidin-3-one 1,1-dioxide], the concentration for half-maximal inhibition (IC50) on PTP1B and on PTPN2 was ≤ 1000 nM throughout.
